Results: patent publication US20200368198A1, “METHODS FOR INCREASING FERTILITY” (NEWSOUTH INNOVATIONS PTY LIMITED, priority 2017, published 2020)
“And” between values parts separate entries of the source, which are not always exact repeats. Identical values can stand only once.

Assays:
[1] = test system: wild-type and NMNAT1-Tg female mice; experiment: Oocyte yield following doxorubicin in wild-type or NMNAT1-Tg mice; type: in vivo; details: 10 mg/kg i.p., two months later, PMSG, per mouse
Procedure: As in Example 2, 7 week-old female wild-type (“WT”) control or their littermates overexpressing NMNAT1 (“NMNAT1-Tg”) were treated with doxorubicin (10 mg/kg, i.p. injection). […] Two months later, animals were super-ovulated with PMSG, euthanased, and ovaries punctured to release MI oocytes, which were counted (FIG. 18 and Table 9).

C57BL6 female mice [2] = experiment: Cumulus oocyte complex yield after PMSG superovulation, doxorubicin with or without NMN; type: in vivo; details: per mouse, single dose doxorubicin 10 mg/kg i.p. and/or NMN 2 g/L drinking water, 2 months post doxorubicin
Procedure: To assess oocyte yield, and mice were hormonally stimulated to superovulated by intraperitoneal injection with 7.5 IU/mL of Pregnant Mare's Serum Gonadotropin (PMSG) (Folligon; Intervet, Boxmeer, Holland) to stimulate follicular growth. After 44-46 hours, ovaries were collected in HEPES-buffered minimum essential medium (aMEM; […] Sigma Aldrich, St. Louis, Mo.) and 100 μM IBMX (Sigma Aldrich). […] NMN was delivered through addition to drinking water at 2 g/L, for a final dose of approximately 165 mg/kg. Administration of NMN began one day prior to doxorubicin administration. […] Ovaries were then punctured to release MI oocytes. In a separate cohort of animals, the same experiment was repeated using animals treated with the platinum based chemotherapy drug cisplatin. In FIG. 6 and Table 1, numbers of cumulus oocyte complexes are listed.

oocytes [3] = experiment: Meiotic progression (GVBD, PBE) of harvested oocytes, doxorubicin with or without NMN; type: in vivo, mice; details: doxorubicin and/or NMN
Source text: Once harvested from ovaries, oocytes were stored in IBMX media to prevent progression into meiosis.

C57BL6 females [4] = experiment: Reversal design: primordial follicle counts in ovarian histology sections; type: in vivo, mice; details: doxorubicin 10 mg/kg i.p., NMN in drinking water started four weeks later for 4 weeks; per mouse
Source text: Ovaries were dissected from freshly euthanased animals, and preserved in 10% neutral buffered formalin for 24 hr, followed by 70% ethanol, until embedding in paraffin blocks. Blocks were sectioned on a microtome and subjected to haematoxylin and eosin (H&E) staining. Primordial follicles were manually counted by a blinded investigator.
Next, we decided to investigate whether NMN treatment delivered some time following chemotherapy treatment could actively reverse chemotherapy induced infertility. […] Four weeks later, they received NMN in their drinking water, for another 4 weeks, prior to being euthanased for either oocyte studies or ovarian histological analysis. The rationale of this experimental design is to investigate whether NMN has the ability to induce regeneration of the ovary. According to the standard dogma of reproductive biology, mammals are born with a set number of follicles which are slowly released as oocytes over the course of a lifetime, with the ovaries incapable of regenerating new follicles.

C57BL6 female mice [5] = experiment: Mating trial after doxorubicin with or without NMN co-treatment; type: in vivo; details: for Number of mating rounds required to achieve pregnancy: the values are: cumulative % of females pregnant by round
Procedure: Following oocyte counting and analysis of oocyte meiotic progression, as well as a separate cohort of animals for histological ovarian analysis, a separate cohort of animals were treated as indicated, and mated with stud males of proven track record, to assess the ability of animals to deliver live births following chemotherapy treatment in the presence of absence of NMN co-treatment.

NAMPT = NAMPT (Homo sapiens, UniProt P43490); details: in vitro; cited from earlier work
CD38 = biological target: T1, CD38 (Homo sapiens, UniProt P28907); details: in vitro; cited from earlier work
T1 sequence (P28907 1-300): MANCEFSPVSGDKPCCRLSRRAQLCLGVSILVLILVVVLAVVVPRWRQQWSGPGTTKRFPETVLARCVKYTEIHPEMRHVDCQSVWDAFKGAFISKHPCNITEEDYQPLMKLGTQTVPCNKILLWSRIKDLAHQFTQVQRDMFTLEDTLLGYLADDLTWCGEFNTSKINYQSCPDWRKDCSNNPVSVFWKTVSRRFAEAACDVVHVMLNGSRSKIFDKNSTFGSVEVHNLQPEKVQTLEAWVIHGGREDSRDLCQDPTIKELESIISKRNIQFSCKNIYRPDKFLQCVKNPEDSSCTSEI

C57BL6 females [6] = experiment: Reversal design: oocyte yield, cisplatin followed by NMN 4 weeks later; type: in vivo, mice; details: cisplatin 5 mg/kg i.p., per mouse
Procedure: (§1) To assess oocyte yield, and mice were hormonally stimulated to superovulated by intraperitoneal injection with 7.5 IU/mL of Pregnant Mare's Serum Gonadotropin (PMSG) (Folligon; Intervet, Boxmeer, Holland) to stimulate follicular growth. After 44-46 hours, ovaries were collected in HEPES-buffered minimum essential medium (aMEM; Gibco Life Technologies, Grand Island, N.Y.) supplemented with 50 µM of 3-isobuty-1-methylxanthine (IBMX) (Sigma aldrich, NSW, AU) (M2 medium) to maintain meitotic arrest at germinal vesicle stage. Cumulus oocyte complexes (COCs) were isolated from preovulatory follicles using a 27-gauge needle and collected using flame-pulled borosilicate Pasteur pipettes in M2 medium supplemented with 3 mg/ml bovine serum albumin (BSA; Sigma Aldrich, St. Louis, Mo.) and 100 μM IBMX (Sigma Aldrich). Cumulus oocyte complexes (COCs) were mechanically denuded of cumulus cells by pipetting, and the denuded oocytes were transferred to another dish containing a drop of fresh M2-medium plus IBMX on heat block with 37° C. with lid to protect oocytes from light.
Next, we decided to investigate whether NMN treatment delivered some time following chemotherapy treatment could actively reverse chemotherapy induced infertility. […]

oocytes [7] = experiment: Meiotic progression (GVBD, PBE) of harvested oocytes, cisplatin with or without NMN; type: in vivo, mice; details: cisplatin and/or NMN
Procedure: Once harvested from ovaries, oocytes were stored in IBMX media to prevent progression into meiosis. Once released from IBMX, meiotic progression was assessed by the proportions of oocytes achieving germinal vesicle breakdown (GVBD) for meiosis I, and polar body extrusion (PBE) for meiosis II, with results shown in FIGS. 7 and 8 and Tables 2 and 3.
Again, as in Example 2 above, the oocytes which were harvested from these studies were allowed to progress down meiosis, in order to assess meiotic progression rates (FIGS. 16 and 17 and Table 7 and 8).

C57BL6 female mice [8] = experiment: Cumulus oocyte complex yield after PMSG, cisplatin with or without NMN; type: in vivo; details: per mouse, single dose cisplatin 5 mg/kg i.p. and/or NMN 2 g/L drinking water, two months later
Procedure: as §1, with “light. […]” for “light.”

[9] = biological target: NADH:quinone oxidoreductase (NQ01) (Homo sapiens, UniProt P15559); details: cited from earlier work
NADH:quinone oxidoreductase (NQ01), sequence (P15559 whole entry): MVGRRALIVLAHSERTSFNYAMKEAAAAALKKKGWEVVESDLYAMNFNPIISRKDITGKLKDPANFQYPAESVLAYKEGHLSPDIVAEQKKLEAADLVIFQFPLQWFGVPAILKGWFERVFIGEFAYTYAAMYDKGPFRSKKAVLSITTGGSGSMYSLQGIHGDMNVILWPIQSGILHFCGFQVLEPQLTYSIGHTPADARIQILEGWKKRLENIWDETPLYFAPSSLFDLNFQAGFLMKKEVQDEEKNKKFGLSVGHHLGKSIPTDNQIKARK

NAMPT, sequence (P43490 whole entry, species assumed): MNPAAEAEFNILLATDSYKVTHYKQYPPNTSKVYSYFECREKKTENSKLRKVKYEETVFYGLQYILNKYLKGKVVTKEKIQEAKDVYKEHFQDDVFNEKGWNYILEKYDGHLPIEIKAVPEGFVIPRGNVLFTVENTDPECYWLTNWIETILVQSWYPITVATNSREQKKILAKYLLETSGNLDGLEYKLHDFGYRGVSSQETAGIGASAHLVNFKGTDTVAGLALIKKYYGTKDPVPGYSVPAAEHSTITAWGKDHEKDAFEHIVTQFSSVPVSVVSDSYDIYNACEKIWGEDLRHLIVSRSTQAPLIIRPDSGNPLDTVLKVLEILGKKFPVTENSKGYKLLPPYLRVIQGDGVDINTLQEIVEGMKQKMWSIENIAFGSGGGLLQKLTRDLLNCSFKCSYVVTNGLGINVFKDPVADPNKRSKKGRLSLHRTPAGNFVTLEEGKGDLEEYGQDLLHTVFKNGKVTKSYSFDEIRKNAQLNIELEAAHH

## COc1cccc2c1C(=O)c1c(O)c3c(c(O)c1C2=O)C[C@@](O)(C(=O)CO)C[C@@H]3O[C@H]1C[C@H](N)[C@H](O)[C@H](C)O1 [Dox, doxorubicin]
[1]; NMNAT1-Tg mice
  Oocyte yield following doxorubicin treatment: 13 (2×) and 12 and 11 and 15 and 10 (2×) and 18
[1]; wild-type mice
  Oocyte yield following doxorubicin treatment: 1 (2×) and 4 (2×) and 2 and 7 and 9 (2×) and 3
C57BL6 female mice [2]
  Numbers of cumulus oocyte complexes released from mice: 1 and 8 and 9 and 3 and 6 and 7 and 5
Oocytes [3]; 1 h after release from IBMX
  Proportion of harvested oocytes achieving germinal vesicle breakdown: 19 % of total
Oocytes [3]; 2 h after release from IBMX
  Proportion of harvested oocytes achieving germinal vesicle breakdown: 92 % of total
Oocytes [3]; 14 hr following GVBD
  Proportions of oocytes achieving polar body extrusion: 21
Oocytes [3]; 16 hr following GVBD
  Proportions of oocytes achieving polar body extrusion: 52
Oocytes [3]; 20 hr following GVBD
  Proportions of oocytes achieving polar body extrusion: 81
C57BL6 females [4]
  Primordial follicle numbers in ovarian histology sections: 34 and 50 and 49 and 41
C57BL6 female mice [5]; Round 0
  Number of mating rounds required to achieve pregnancy: 0%
C57BL6 female mice [5]; Round 1
  Number of mating rounds required to achieve pregnancy: 60%
C57BL6 female mice [5]; Round 2
  Number of mating rounds required to achieve pregnancy: 90%
C57BL6 female mice [5]; Round 3
  Number of mating rounds required to achieve pregnancy: 90%
C57BL6 female mice [5]; per litter, female C57BL6 mice treated with doxorubicin and/or NMN, mated
  Number of live pups born per litter: strong reduction

## OC(CNc1ccccc1)Cn1c2ccc(Br)cc2c2cc(Br)ccc21 (stereo not shown) [P7C3]
NAMPT
  Effect on NAMPT activity: enhances activity of NAMPT in vitro

## O=c1cc(-c2ccc(O)cc2)oc2cc(O)cc(O)c12 [apigenin, 5,7-dihydroxy-2-(4-hydroxyphenyl)-4H-1-benzopyran-4-one]
CD38
  Inhibition of CD38 activity: inhibitors of CD38 activity in vitro

## N.N.[Cl][Pt][Cl] [cisplatin]
C57BL6 females [6]
  Oocyte yield: 6 and 5 (2×) and 2 and 4
Oocytes [7]; 1 h after release from IBMX
  Proportion of harvested oocytes achieving germinal vesicle breakdown: 43 % of total
Oocytes [7]; 2 h after release from IBMX
  Proportion of harvested oocytes achieving germinal vesicle breakdown: 100 % of total
Oocytes [7]; 14 hr following completion of GVBD
  Proportion of harvested oocytes achieving polar body extrusion: 40 % of total
Oocytes [7]; 16 hr following completion of GVBD
  Proportion of harvested oocytes achieving polar body extrusion: 70 % of total
Oocytes [7]; 20 hr following completion of GVBD
  Proportion of harvested oocytes achieving polar body extrusion: 85 % of total
C57BL6 female mice [8]
  Numbers of cumulus oocyte complexes released from mice: reduces oocyte yield and 10 and 5 and 6 and 0 and 4 and 9

## O=c1c(O)c(-c2ccc(O)c(O)c2)oc2cc(O)cc(O)c12 [quercetin, 2-(3,4-dihydroxyphenyl)-3,5,7-trihydroxy-4H-chromen-4-one]
CD38
  Inhibition of CD38 activity: inhibitors of CD38 activity in vitro

## CC1(C)CCC2=C(O1)c1ccccc1C(=O)C2=O [β-lapachone, 3,4-dihydro-2,2-dimethyl-2H-napthol[1,2-b]pyran-5,6-dione]
[9]
  Effect on NQ01: activates the enzyme NADH:quinone oxidoreductase (NQ01)
